From patent US20220290085A1, “CELL-SENSORY BIOSCAFFOLDS, FABRICATION METHODS AND APPLICATIONS OF SAME” (BOARD OF TRUSTEES OF THE UNIVERSITY OF ARKANSAS, priority 2019, published 2022)

Columns and labels:
[1] = tested on: breast cancer cells (MCF7); experiment: Doxorubicin drug cytotoxicity in cell culture; type: cell-based, human; settings: drug cytotoxicity assessment, FIG. 23
Experimental: Impedance Measurement for Doxorubicin Drug Effect on Breast Cancer Cell Lines: This test was performed to investigate the effect of a well-known chemotherapy drug Doxorubicin on two different cancer cell lines. Doxorubicin (DOX, C27H29NO11), also called Adriamycin™, is a popular chemotherapy drug for treating several types of cancer including breast cancer via triggering the cancer cell death. This drug was used to quantify the drug effect on breast cancer cells' metabolism in response to stresses from different dosages of the DOX, via monitoring the impedance signal change from the cancer cells before and after the DOX treatment. The drug cytotoxicity was assessed to determine the concentration of 2.0 μM, which the cancer cells start to die in a proper pace that can enable us to quantitatively characterize the DOX effect on the cancer cell's metabolism and apoptosis directly on the smart bioscaffold, as shown in FIG. 23.

MCF7 [2] = experiment: Impedance on TiO2 nanowire bioscaffold sensor of DOX-treated MCF7 cells; type: cell-based, human; settings: DOX 2 μM 24 hrs, then glucose 5.5 mM for 35 minutes, 1×PBS, FIG. 24
Experimental: (§1) To investigate the cell impedance change due to the DOX, the two cell lines were first cultured to reach about 90% confluence and then the DOX (2 μM) was added over two time-intervals, about 24 hours and about 48 hours. The cells were then harvested using trypsin and counted using the hemocytometer and trypan blue stain to control the cell number. The cells were then suspended in about 10 mL of 1×PBS with the TiO2 nanowires sensor for about 35 minutes, and the impedance was tested likewise from about 40 kHz to about 1 MHz. The DOX is supposed to decrease the MCF7 impedance due to cell's resistance to the DOX. This is because the overexpressed P-glycoprotein 1 (P-gp), also called multidrug resistance protein 1 (MDR1) or ATP-binding cassette sub-family B member 1 (ABCB1) or cluster of differentiation 243 (CD243), can pump the foreign molecules out of the MCF7 cell.
(§2) The second set of experiment was done as in the first step, with glucose (5.5 mM) in the cell suspensions to investigate the cell impedance correspondence to glucose effect after being treated with DOX. The biosensors were done after about 35 minutes in the cell suspension, with the impedance parameters same as described previously.

MDA-MB231 = experiment: Impedance on TiO2 nanowire bioscaffold sensor of DOX-treated MDA-MB231 cells; type: cell-based, human; settings: DOX 2 μM 24 hrs, FIG. 25
Experimental: as §1, §2

MCF7 [3] = settings: MCF7 vs MDA-MB231; cited from earlier work

COc1cccc2c1C(=O)c1c(O)c3c(c(O)c1C2=O)C[C@@](O)(C(=O)CO)C[C@@H]3O[C@H]1C[C@H](N)[C@H](O)[C@H](C)O1 [Doxorubicin]
concentration at which the cancer cells start to die in a proper pace [1]: 2.0 µM
impedance on the bioscaffold at low frequency after DOX pre-treatment and glucose incubation (MCF7 [2]): higher impedance
response to glucose after being pre-treated with DOX (MDA-MB231; glucose 5.5 mM): no significant response to glucose
impedance on the bioscaffold after DOX pre-treatment and glucose incubation (MDA-MB231; then glucose 5.5 mM for 35 minutes, 1×PBS): lower impedance
resistance of MCF7 to DOX compared with MDA-MB231 (MCF7 [3]): more resistive
